Experimental data as given in US20220409620A1, “REDUCING IMMUNOGENICITY TO PEGLOTICASE” (Horizon Pharma Rheumatology LLC, priority 2016, published 2022).

Tests used:
[1] = tested on: adult patients with uncontrolled gout; experiment: Patient and physician global assessment of gout, open-label study; assay type: in vivo, human; settings: Methotrexate Baseline, mITT Population
Source text: Patient Global Assessment: The patient global assessment was collected at the Screening and Week −4 (prior to the first dose of MTX) Visits during the MTX Run-in Period; prior to KXX infusion at the Day 1 and Weeks 14, 24 and 36 Visits during the KXX+MTX Period; at the End of Pegloticase Infusions Visit (if applicable); the Week 52/End of Study/Early Termination Visit and the Post Treatment Periods 3 and 6 Month Follow-up Visits.
Physician Global Assessment: The physician global assessment was collected at the Screening and Week −4 or week −6 (prior to the first dose of MTX) Visits during the MTX Run-in Period for the open-label and randomized studies, respectively; prior to pegloticase infusion at the Day 1 and Weeks 14, 24 and 36 Visits, and the Day 1 and week 6, 14, 20, 24, 30, 36, and 44 visits during the Pegloticase+IMM Period for the open-label and randomized studies, respectively; at the End of Pegloticase Infusions Visit (if applicable), the Week 52/End of Study/Early Termination Visit and the Post Treatment Periods 3 and 6 Month Follow-up Visits (open-label study).

[2] = MTX polyglutamates 1 to 5 in red blood cells, MIRROR OL; assay type: in vivo, human; settings: during the treatment course; FIG. 2
Protocol: Blood samples were collected prior to pegloticase infusion on Day 1 and at the Weeks 4, 8, 22 and 36 Visits or at Day 1 and weeks 14, 24, and 36 visits during the Pegloticase+IMM for MTX Polyglutamate analysis for the open-label and randomized studies, respectively.
Methods: In the MIRROR OL trial, MTX (15 mg/week) was given orally 4 weeks prior to the first pegloticase dose and continued weekly, in combination with pegloticase 8 mg given intravenously every 2 weeks, for a treatment duration of up to 52 weeks. Pre-infusion samples were collected to measure MTX-PGs 1 to 5 in red blood cells at day 1, week 4, 8, 22, 24 and 36. […] Pegloticase concentrations in serum was measured using a validated enzymatic/fluorescence assay. The limit of quantification is 0.6 μg/mL. Anti-pegloticase/PEG IgG antibodies (ADA) were measured using a validated enzyme linked immunosorbent assay (ELISA). The analysis of MTX Polyglutamates was conducted by Exagen. The impact of MTX on pegloticase PK was evaluated by two methods: (1) Comparing pegloticase exposures (median Cmax and Cmin across visits) with MTX from the MIRROR OL trial to the observed levels in historical monotherapy Phase 3 studies (C0405 and C0406) (Lipsky et al., Arthritis Res Ther 16(2), 2014; Sundy et al., JAMA 306(7), 2011). […]

[3] = End of Pegloticase Infusions Visit

pegloticase
Patient Global Assessment of Gout, Change from Baseline, Mean (SD) ([1]; Day 1): 0.2 (1.85)
Patient Global Assessment of Gout, Change from Baseline, Median ([1]; Day 1): 0.0
Patient Global Assessment of Gout, Observed, Mean (SD) ([1]; Day 1): 5.8 (1.76)
Patient Global Assessment of Gout, Observed, Median ([1]; Day 1): 6.0
Physician Global Assessment of Gout, Change from Baseline, Mean (SD) ([1]; Day 1): −0.1 (2.35)
Physician Global Assessment of Gout, Change from Baseline, Median ([1]; Day 1): 0.0
Physician Global Assessment of Gout, Observed, Mean (SD) ([1]; Day 1): 6.0 (2.45)
Physician Global Assessment of Gout, Observed, Median ([1]; Day 1): 7.0
Patient Global Assessment of Gout, Change from Baseline, Mean (SD) ([1]; Early Termination Visit): 0.7 (2.89)
Patient Global Assessment of Gout, Change from Baseline, Median ([1]; Early Termination Visit): −1.0
Patient Global Assessment of Gout, Observed, Mean (SD) ([1]; Early Termination Visit): 5.7 (3.06)
Patient Global Assessment of Gout, Observed, Median ([1]; Early Termination Visit): 5.0
Physician Global Assessment of Gout, Change from Baseline, Mean (SD) ([1]; Early Termination Visit): −2.7 (2.08)
Physician Global Assessment of Gout, Change from Baseline, Median ([1]; Early Termination Visit): −2.0
Physician Global Assessment of Gout, Observed, Mean (SD) ([1]; Early Termination Visit): 3.7 (2.08)
Physician Global Assessment of Gout, Observed, Median ([1]; Early Termination Visit): 3.0
Patient Global Assessment of Gout, Change from Baseline, Mean (SD) [1, 3]: −4.0 (4.24)
Patient Global Assessment of Gout, Change from Baseline, Median [1, 3]: −4.0
Patient Global Assessment of Gout, Observed, Mean (SD) [1, 3]: 2.0 (2.83)
Patient Global Assessment of Gout, Observed, Median [1, 3]: 2.0
Physician Global Assessment of Gout, Change from Baseline, Mean (SD) [1, 3]: −7.0 (0.00)
Physician Global Assessment of Gout, Change from Baseline, Median [1, 3]: −7.0
Physician Global Assessment of Gout, Observed, Mean (SD) [1, 3]: 0.5 (0.71)
Physician Global Assessment of Gout, Observed, Median [1, 3]: 0.5
Patient Global Assessment of Gout, Change from Baseline, Mean (SD) ([1]; Week 14): −2.5 (2.77)
Patient Global Assessment of Gout, Change from Baseline, Median ([1]; Week 14): −2.5
Patient Global Assessment of Gout, Observed, Mean (SD) ([1]; Week 14): 3.1 (2.27)
Patient Global Assessment of Gout, Observed, Median ([1]; Week 14): 3.0
Physician Global Assessment of Gout, Change from Baseline, Mean (SD) ([1]; Week 14): −4.2 (2.22)
Physician Global Assessment of Gout, Change from Baseline, Median ([1]; Week 14): −5.0
Physician Global Assessment of Gout, Observed, Mean (SD) ([1]; Week 14): 1.9 (1.64)
Physician Global Assessment of Gout, Observed, Median ([1]; Week 14): 2.0
Patient Global Assessment of Gout, Change from Baseline, Mean (SD) ([1]; Week 24): −3.7 (3.23)
Patient Global Assessment of Gout, Change from Baseline, Median ([1]; Week 24): −3.0
Patient Global Assessment of Gout, Observed, Mean (SD) ([1]; Week 24): 2.0 (1.79)
Patient Global Assessment of Gout, Observed, Median ([1]; Week 24): 3.0
Physician Global Assessment of Gout, Change from Baseline, Mean (SD) ([1]; Week 24): −5.3 (2.10)
Physician Global Assessment of Gout, Change from Baseline, Median ([1]; Week 24): −6.0
Physician Global Assessment of Gout, Observed, Mean (SD) ([1]; Week 24): 0.8 (0.87)
Physician Global Assessment of Gout, Observed, Median ([1]; Week 24): 1.0
Patient Global Assessment of Gout, Change from Baseline, Mean (SD) ([1]; Week 36): −3.4 (2.92)
Patient Global Assessment of Gout, Change from Baseline, Median ([1]; Week 36): −4.0
Patient Global Assessment of Gout, Observed, Mean (SD) ([1]; Week 36): 2.1 (2.80)
Patient Global Assessment of Gout, Observed, Median ([1]; Week 36): 1.0
Physician Global Assessment of Gout, Change from Baseline, Mean (SD) ([1]; Week 36): −5.9 (2.03)
Physician Global Assessment of Gout, Change from Baseline, Median ([1]; Week 36): −6.0
Physician Global Assessment of Gout, Observed, Mean (SD) ([1]; Week 36): 0.7 (1.00)
Physician Global Assessment of Gout, Observed, Median ([1]; Week 36): 0.0
Patient Global Assessment of Gout, Change from Baseline, Mean (SD) ([1]; Week 52/ET): −4.3 (0.58)
Patient Global Assessment of Gout, Change from Baseline, Median ([1]; Week 52/ET): −4.0
Patient Global Assessment of Gout, Observed, Mean (SD) ([1]; Week 52/ET): 1.0 (1.00)
Patient Global Assessment of Gout, Observed, Median ([1]; Week 52/ET): 1.0
Physician Global Assessment of Gout, Change from Baseline, Mean (SD) ([1]; Week 52/ET): −7.3 (0.58)
Physician Global Assessment of Gout, Change from Baseline, Median ([1]; Week 52/ET): −7.0
Physician Global Assessment of Gout, Observed, Mean (SD) ([1]; Week 52/ET): 1.0 (0.00)
Physician Global Assessment of Gout, Observed, Median ([1]; Week 52/ET): 1.0

CN(Cc1cnc2nc(N)nc(N)c2n1)c1ccc(C(=O)N[C@@H](CCC(=O)O)C(=O)O)cc1 [MTX, methotrexate]
Concentrations of MTX-PGs [2]: maintained
